Measurements taken from patent publication EP0993306B1, “PERFLUOROALKYLATED OLIGOMER COMPOUNDS, PROCESS FOR PREPARING THE SAME AND THEIR USE IN NMR DIAGNOSIS” (SCHERING AKTIENGESELLSCHAFT, priority 1997, dated 1999).

Assays:
[1] = Diffusibility: in vivo comparison with an intravasal and an extracellular contrast agent, ligated renal vessels; conditions: for Prozentsatz der im Blutraum verbliebenen Dosis: i.v. 20 µmol/kg each, ligated renal vessels, relative to Verbindung 2 set as 100 %
Experimental: Als Versuchstiere dienten drei 250 g schwere, männliche (Schering-SPF-) Ratten. Den Tieren wurden die Nierengefäße abgebunden, um eine renale Eliminierung zu verhindern und bei angenommener vernachlässigbarer faekaler Eliminierung ein Maß für Diffusibilität der erfindungsgemäßen Formulierung aus dem Blut in das umgebende Gewebe zu erhalten. Je Tier wurden 0.5 ml (jeweils 10 mmol/L) der folgenden Kontrastmittel-Lösung intravenös appliziert: Gemisch aus je 1 Teil der Verbindung des Beispiels 1g, im folgenden Verbindung 1 genannt, des intravasalen Kontrastmittels Eu-DTPA-Albumin, im folgenden Verbindung 2 genannt, und des extrazellulären Kontrastmittels Dy-DTPA, im folgenden Verbindung 3 genannt. Über einen Katheter in der Arteria carotis communis wurden Blutproben zu folgenden Zeitpunkten entnommen: 15, 30, 45, 60, 90 sec, 3, 5, 10, 15 min p.i. In den gewonnenen Blutproben wurden jeweils parallel die Konzentrationen an Gadolinium (Gd), Europium (Eu) und Dysprosium (Dy) mittels Atomemissionsspektrometrie (ICP-AES) gemessen. Der im Blutraum verbliebene Anteil des intravasalen Kontrastmittels Verbindung 2 (Eu) wurde als 100 % gesetzt. Der im Blutraum verbliebene Anteil der erfindungsgemäßen Formulierung Verbindung 1 (Gd) und der Verbindung 3 (Dy, extrazelluläre Vergleichssubstanz) konnte durch die unterschiedliche Markierung im gleichen Tier verglichen werden und wurde prozentual ins Verhältnis zur Konzentration der Verbindung 2 gesetzt. Damit liefern diese Daten Angaben über den Verbleib der Verbindungen im Intravasalraum.

[2] = T1 relaxivity in human plasma (Minispec pc 20); assay type: physicochemical
[3] = rat, in vivo, iv, 100 umol/kg
Source text: Hierfür wurde nach einmaliger intravenöser Applikation (via einer Caudalvene) der Substanzen (Dosis: ≈ 100 µmol Metall pro kg Körpergewicht) die Substanzkonzentration im Blut (basierend auf dem Gd- bzw. Dy-Gehalt) über einen Zeitraum bis zu 120 Minuten p. i. mittels ICP-AES bestimmt. Die pharmakokinetischen Parameter: Verteilungsvolumen (Vss), Gesamtclearance (CLtot) und Eliminationshalbwertszeit (tb) wurden mit einem speziellen Computerprogramm (TOPFIT 2.0; Thomae, Schering, Gödecke) berechnet, wobei ein Zwei-Kompartment-Distributionsmodell zu Grunde gelegt wurde.
Die Gd- und Dy-Gehalte im Blut wurden mittels ICP-AES bestimmt.
Hierfür wurde nach einmaliger intravenöser Applikation (via einer Caudalvene) der Substanzen (Dosis: ≈ 100 µmol Metall pro kg Körpergewicht) die Substanzkonzentration im Blut (basierend auf dem Metallgehalt) über einen Zeitraum bis zu 120 Minuten p. i. mittels ICP-AES bestimmt. Die pharmakokinetischen Parameter: Verteilungsvolumen (Vss), Gesamtclearance (CLtot) und Eliminationshalbwertszeit (tb) wurden mit einem speziellen Computerprogramm (TOPFIT 2.0; Thomae, Schering, Gödecke) berechnet, wobei ein Zwei-Kompartment-Distributionsmodell zu Grunde gelegt wurde.

[4] = Contrast-enhanced MR angiography (3D FLASH, 2.0 Tesla); assay type: in vivo, Ratten (Han. Wistar); conditions: directly after single i.v. 50 µmol/kg or 100 µmol/kg; 3 D FLASH 10/2.6/40°
Experimental: Die Untersuchungen zur kontrastmittelgetützten MR Angiographie wurden an einem experimentellen MRT System (SISCO SIS 85, 2.0 Tesla) mit einer 3 D FLASH Technik (10/2.6/40°) durchgeführt. Um die Wirksamkeit von Kontrastmitteln zur Darstellung von Blutgefäßen zu bestimmen, wurden narkotisierte (Rompun® + Ketavet®,1 + 1, v/v; ≈ 1 ml pro kg Körpergewicht, i. m.) Ratten (Han. Wistar; ≈ 200 g Körpergewicht) MR-tomographisch untersucht.
Figur 4 zeigt Abbildungen dieses Experiments. Die MIP (maximal intensity projection)-Bilder wurden berechnet aus den 3 D FLASH Experimenten vor (links) und direkt nach einmaliger i. v. Applikation von 50 µmol / kg (mitte) bzw. 100 µmol /kg (rechts) der Substanz aus Beispiel 1 g.

With “1,4,7-Tris {1,4,7-tris(N-carboxylatomethyl)-10-(N-1-methyl-3,6-diaza-2,5,8-trioxooctan-1,8-diyl)-1,4,7,10-tetraazacyclododecan, Gd-Komplex}-10-(N-2H,2H,4H,4H,5H,5H-3-oxa-perfluor-tridecanoyl)-1,4,7,10-tetraazacyclododecan [Beispiel 1g]” the “Prozentsatz der im Blutraum verbliebenen Dosis” value ([1]; 30 sec p.i.) was 84%, the “Prozentsatz der im Blutraum verbliebenen Dosis” value ([1]; 3 min p.i.) was 62% and the “Prozentsatz der im Blutraum verbliebenen Dosis” value ([1]; 10 min p.i.) was 44%. The “Blutkonzentrationen verglichen mit dem extrazellulären Kontrastmittel” value ([1]; early time points) was “deutlich höhere Blutkonzentrationen”, the “Diffusion in das Interstitium im Vergleich zu Eu-DTPA-BSA (Verbindung 2)” value ([1]; first minute p.i.) was “nur geringfügig schneller” and the “Diffusion in das Interstitium im Vergleich zu Dy-DTPA (Verbindung 3)” value ([1]; whole duration of the experiment) was “langsamer”. The “R^1 (T^1-Relaxivity)” value ([2]; 0.47 T, 20 MHz, 37 °C, Humanplasma, normalised to one metal atom) was 19,5 L/mmol * sec, the “Relaxivity (r1, Plasma)” value ([2]; plasma) was “≈ 19.5 1*mmol^- ^1*s^-1” and the CL tot [3] was 0.41 mL/min/kg. For the same substance, the Vss [3] was 0.09 L/kg and the “Signalanstieg in den Blutgefäßen (MIP-Bilder)” value [4] was “ausgeprägter Signalanstieg in den Blutgefäßen und eine deutliche Kontrastierung zum Normalgewebe”.
